IC50 and Kd data for 43 compounds are collected here from ChEMBL document CHEMBL2311249, “Development of inhibitors of the PAS-B domain of the HIF-2α transcription factor” (J Med Chem, 2013).

The target in assay [1] is Aryl hydrocarbon receptor nuclear translocator/Endothelial PAS domain-containing protein 1 (Homo sapiens, UniProt P27540+Q99814). The assay can be described thus: (§1) Inhibition of GST-tagged PAS-B domain of HIF-2alpha-Flag-tagged PAS-B domain of ARNT heterodimerization (unknown origin) by luminescence proximity assay. The assay is classed as protein assay.
Sequence of Aryl hydrocarbon receptor nuclear translocator/Endothelial PAS domain-containing protein 1 (Homo sapiens, UniProt P27540+Q99814) (P27540 whole entry, the tested form may be a part): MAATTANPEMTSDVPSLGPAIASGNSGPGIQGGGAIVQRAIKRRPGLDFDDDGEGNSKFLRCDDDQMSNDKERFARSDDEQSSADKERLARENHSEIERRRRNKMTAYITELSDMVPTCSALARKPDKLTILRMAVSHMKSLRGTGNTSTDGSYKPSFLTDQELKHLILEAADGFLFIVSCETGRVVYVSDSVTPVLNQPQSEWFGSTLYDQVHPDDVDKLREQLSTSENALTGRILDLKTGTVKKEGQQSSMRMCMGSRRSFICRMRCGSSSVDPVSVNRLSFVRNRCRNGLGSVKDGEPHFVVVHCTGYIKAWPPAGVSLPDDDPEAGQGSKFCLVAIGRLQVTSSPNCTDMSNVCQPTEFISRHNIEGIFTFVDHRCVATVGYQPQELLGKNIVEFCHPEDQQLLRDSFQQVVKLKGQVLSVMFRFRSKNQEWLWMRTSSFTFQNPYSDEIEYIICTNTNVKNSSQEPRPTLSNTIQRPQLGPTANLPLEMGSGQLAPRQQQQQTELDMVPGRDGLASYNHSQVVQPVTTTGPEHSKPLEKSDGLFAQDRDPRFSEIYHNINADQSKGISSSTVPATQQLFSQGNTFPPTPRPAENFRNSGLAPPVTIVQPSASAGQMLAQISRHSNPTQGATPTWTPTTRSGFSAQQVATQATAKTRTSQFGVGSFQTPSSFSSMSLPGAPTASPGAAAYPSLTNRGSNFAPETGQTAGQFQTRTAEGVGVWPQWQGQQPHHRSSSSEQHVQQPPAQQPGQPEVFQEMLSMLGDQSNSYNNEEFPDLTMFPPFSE
Sequence of Aryl hydrocarbon receptor nuclear translocator/Endothelial PAS domain-containing protein 1 (Homo sapiens, UniProt P27540+Q99814) (Q99814 whole entry, the tested form may be a part): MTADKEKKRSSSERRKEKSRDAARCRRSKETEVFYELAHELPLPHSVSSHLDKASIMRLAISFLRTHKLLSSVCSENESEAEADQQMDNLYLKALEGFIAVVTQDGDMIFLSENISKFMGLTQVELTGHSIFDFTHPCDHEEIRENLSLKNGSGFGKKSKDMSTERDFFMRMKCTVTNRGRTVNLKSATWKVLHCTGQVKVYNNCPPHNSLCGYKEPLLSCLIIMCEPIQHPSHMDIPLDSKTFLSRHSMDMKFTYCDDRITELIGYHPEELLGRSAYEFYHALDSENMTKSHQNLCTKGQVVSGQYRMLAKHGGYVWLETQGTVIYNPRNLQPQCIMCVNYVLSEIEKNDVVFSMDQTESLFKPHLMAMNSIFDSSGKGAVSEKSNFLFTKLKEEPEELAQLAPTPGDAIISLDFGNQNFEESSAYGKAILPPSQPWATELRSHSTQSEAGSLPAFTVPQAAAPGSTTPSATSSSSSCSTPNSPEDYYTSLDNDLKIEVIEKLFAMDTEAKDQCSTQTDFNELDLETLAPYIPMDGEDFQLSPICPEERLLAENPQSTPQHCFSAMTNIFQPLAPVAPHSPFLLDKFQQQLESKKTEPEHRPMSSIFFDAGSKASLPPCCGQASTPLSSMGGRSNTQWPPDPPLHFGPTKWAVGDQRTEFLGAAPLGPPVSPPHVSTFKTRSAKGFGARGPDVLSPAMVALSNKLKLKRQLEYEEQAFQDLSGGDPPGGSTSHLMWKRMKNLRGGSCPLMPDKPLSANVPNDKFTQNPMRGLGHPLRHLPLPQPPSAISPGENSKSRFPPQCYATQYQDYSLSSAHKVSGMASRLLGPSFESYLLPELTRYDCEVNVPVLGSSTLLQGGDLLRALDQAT
The target of assay [2] is Endothelial PAS domain-containing protein 1 (Homo sapiens, UniProt Q99814). Put plainly: Binding affinity to wild type PAS-B domain of HIF-2alpha (unknown origin) by isothermal calorimetry analysis.
Sequence of Endothelial PAS domain-containing protein 1 (Q99814 whole entry, the tested form may be a part): as above
In assay [3] the target is Aryl hydrocarbon receptor nuclear translocator/Endothelial PAS domain-containing protein 1 (Homo sapiens, UniProt Q99814). The description is as §1. Format: protein assay.
Sequence of Aryl hydrocarbon receptor nuclear translocator/Endothelial PAS domain-containing protein 1 (Homo sapiens, UniProt Q99814) (P27540 whole entry, the tested form may be a part): as the sequence (P27540 whole entry, the tested form may be a part) above
Sequence of Aryl hydrocarbon receptor nuclear translocator/Endothelial PAS domain-containing protein 1 (Homo sapiens, UniProt Q99814) (Q99814 whole entry, the tested form may be a part): as the sequence (Q99814 whole entry, the tested form may be a part) above

Where only a bound is given, the exact number is not on record here.

As a reminder, the IC50 is the concentration that inhibits the measured activity by half. Take `O=[N+]([O-])c1c(Sc2cccc(F)c2)ccc2nonc12`: the IC50 result in assay [1] is listed as “Not Active”. Still for that read-out and setting: the result for `COc1cccc(Nc2ccc3nonc3c2[N+](=O)[O-])c1` reads “Not Active”. For orientation: Kd means the free concentration of one partner at which half of the binding sites on the other are occupied at equilibrium, for simple one-to-one binding. `O=[N+]([O-])c1c(Nc2cccc(F)c2)ccc2nonc12` yielded a Kd in assay [2] of 2200 nM. Moreover, the IC50 in assay [3] turned out to be 2100 nM. In turn, `O=[N+]([O-])c1c(NCc2ccccc2)ccc2nonc12` registered an IC50 in assay [3] of over 5000 nM. For `O=[N+]([O-])c1c(NCc2c(F)cccc2Cl)ccc2nonc12`, the IC50 entry in assay [1] is on record as “Not Active”.

As for `Cc1ccc(CNc2ccc3nonc3c2[N+](=O)[O-])cc1`, the IC50 result in assay [1] is “Not Active”. `O=[N+]([O-])c1c(Nc2cc(F)cc(C(F)(F)F)c2)ccc2nonc12` came in with an IC50 in assay [3] of 430 nM.

`O=[N+]([O-])c1c(Nc2cccc(Cl)c2F)ccc2nonc12` returned an IC50 in assay [3] of 760 nM. `O=[N+]([O-])c1c(Nc2cc(F)cc(Cl)c2)ccc2nn[nH]c12` registered a Kd in assay [2] of over 20000 nM. In assay [3], this compound gave an IC50 of over 10000 nM. As to `O=[N+]([O-])c1c(Nc2ccc(C(F)(F)F)cc2Cl)ccc2nonc12`, the IC50 result in assay [1] is recorded as “Not Active”. Regarding `O=[N+]([O-])c1c(Nc2cccc(Cl)c2)ccc2nonc12`, the IC50 in assay [3] is 180 nM. `O=[N+]([O-])c1c(Nc2ccc(Br)cc2)ccc2nonc12`: the IC50 result in assay [1] was “Not Active”. Regarding `O=[N+]([O-])c1c(NCc2ccc(Cl)cc2)ccc2nonc12`, the IC50 result in assay [1] is “Not Active”. `O=[N+]([O-])c1c(Nc2cccc(C(F)(F)F)c2)ccc2nonc12` yielded a concentration for half-maximal inhibition (IC50) in assay [3] of 460 nM. In the case of `CC(=O)Nc1c(Nc2cc(F)cc(Cl)c2)ccc2nonc12`, the IC50 result in assay [1] is listed as “Not Active”. Same read-out and setting: the entry for `O=C1C=CC(=O)N1c1c(Nc2cc(F)cc(Cl)c2)ccc2nonc12` is “Not Active”. The compound `O=[N+]([O-])c1ccccc1Nc1cc(F)cc(Cl)c1` returned a Kd in assay [2] of 4300 nM. Further, the IC50 entry in assay [1] is listed as “Not Active”. Turning to `O=[N+]([O-])c1c(Nc2cc(F)cc(F)c2)ccc2nonc12`, the Kd in assay [2] came out at 730 nM. The IC50 in assay [3] was determined as 2000 nM. In assay [3], `O=[N+]([O-])c1c(Nc2cc(F)cc(Cl)c2)ccc2[nH]cnc12` had an IC50 of under 5000 nM. Still for that read-out and setting: the result for `O=[N+]([O-])c1c(NCc2cc(F)cc(Cl)c2)ccc2nonc12` reads 2000 nM; that for `Nc1nc2ccc(Nc3cc(F)cc(Cl)c3)c([N+](=O)[O-])c2[nH]1`, over 2000 nM. In the case of `O=[N+]([O-])c1c(Oc2cc(F)cc(Cl)c2)ccc2nonc12`, the IC50 entry in assay [1] is “Not Active”. The same measure, in the same setting: the entry for `O=[N+]([O-])c1c(Nc2ccc(Cl)cc2)ccc2nonc12` is “Not Active”. In assay [3], `O=[N+]([O-])c1c(NCc2ccc(F)cc2Cl)ccc2nonc12` had an IC50 of 330 nM. `O=[N+]([O-])c1c(NCc2ccc(F)cc2C(F)(F)F)ccc2nonc12`: the Kd in assay [2] was 540 nM. In addition, inhibition in assay [3] was half-maximal at 500 nM (IC50). With `O=[N+]([O-])c1c(NCc2cc(F)ccc2F)ccc2nonc12`, in assay [3], the IC50 is over 10000 nM. On to `CNS(=O)(=O)c1c(Nc2cc(F)cc(Cl)c2)ccc2nonc12`, for which, in assay [1], the IC50 entry is “Not Active”. As to `O=C(CCl)Nc1c(Nc2cc(F)cc(Cl)c2)ccc2nonc12`, in assay [1], the IC50 result is listed as “Not Active”. Same read-out and setting: the entry for `O=[N+]([O-])c1c(Sc2ccccc2)ccc2nonc12` is “Not Active”. On the same count and under the same terms, the result for `O=[N+]([O-])c1c(Nc2ccc(F)cc2)ccc2nonc12` reads “Not Active”.

In turn, `O=[N+]([O-])c1c(Nc2cc(F)cc(Cl)c2)ccc2nonc12` gave a Kd in assay [2] of 90 nM. In assay [3], this compound gave an IC50 of 100 nM.

Turning to `O=[N+]([O-])c1c(Nc2ccc(F)c(Cl)c2)ccc2nonc12`, in assay [2], binding was put at a Kd of 400 nM. Moreover, the IC50 in assay [3] turned out to be 170 nM. For `CN(c1cc(F)cc(Cl)c1)c1ccc2nonc2c1[N+](=O)[O-]`, in that order: over 10000 nM and over 3000 nM. In the same order, the values of `O=[N+]([O-])c1c(Nc2ccc(Cl)c(C(F)(F)F)c2)ccc2nonc12` are 170 nM and 90 nM. In assay [2], `Fc1cc(Cl)cc(Nc2ccc3nonc3c2)c1` registered a Kd of 3000 nM. The IC50 result in assay [1] was “Not Active”. In the case of `Nc1c(Nc2cc(F)cc(Cl)c2)ccc2nonc12`, in assay [2], binding was characterised by a dissociation constant (Kd) of 6000 nM. The compound also displayed an IC50 in assay [3] of over 30000 nM. As for `O=[N+]([O-])c1c(Sc2cc(F)cc(Cl)c2)ccc2nonc12`, the IC50 entry in assay [1] is “Not Active”. Still for that read-out and setting: the entry for `CN(C)S(=O)(=O)c1c(Nc2cc(F)cc(Cl)c2)ccc2nonc12` is “Not Active”; for `O=[N+]([O-])c1c(NCc2cc(F)ccc2C(F)(F)F)ccc2nonc12` it is “Not Active”.

In turn, `O=[N+]([O-])c1cc(Nc2ccc3nonc3c2[N+](=O)[O-])ccc1Cl` yielded an IC50 in assay [3] of 400 nM.

In assay [3], `O=[N+]([O-])c1c(Nc2ccc(Cl)c(Cl)c2)ccc2nonc12` had an IC50 of 120 nM. For `O=[N+]([O-])c1cccc(Nc2ccc3nonc3c2[N+](=O)[O-])c1`, the Kd in assay [2] was determined as 3000 nM. This compound yielded an IC50 in assay [3] of 2800 nM.

Regarding `O=[N+]([O-])c1c(Nc2cccc(F)c2Cl)ccc2nonc12`, the IC50 entry in assay [1] is “Not Active”.
